Source: PMC7710018, “Restoration of motor learning in a mouse model of Rett syndrome following long-term treatment with a novel small-molecule activator of TrkB” (Disease Models & Mechanisms, 2020)
Where two headings read alike, the source gives them in different places.

Columns and labels:
[1] = molecular target: T1, GAL2 (h) (Homo sapiens, UniProt O43603); experiment: Cerep ExpresSProfile radioligand binding; settings: 10 micromolar; agonist radioligand; read-out: % Inhibition of Control Specific Binding 2nd
T1 construct: purchased Cerep (ExpresSProfile)
Procedure: (§1) To evaluate the relative binding specificity of LM22A-4 ([Massa et al., 2010]) and PTX-BD4-3, binding to a broad range of 55 pharmacologically relevant receptors, including numerous neurotransmitter and G-protein coupled receptors was assessed using standard radioligand competition binding assays (ExpressSProfile) performed by Cerep, Inc. (Seattle, WA, USA). In addition, ADME-Tox analysis was performed by Cerep, Inc. All experimental conditions are described on the Cerep website (www.cerep.fr).
(§2) Ligand % Inhibition of Control Specific […]
(§3) 48 Ca2+ channel (L, verapamil site) 0 ‐1.3 ‐0.7
(§4) (phenylalkylamine) (antagonist radioligand) […]
(§5) 51 Na+ channel (site 2) (antagonist radioligand) 0.6 11.7 6.1
(§6) 52 Cl‐ channel (GABA‐gated) (antagonist 2.7 ‐5.3 ‐1.3 […]
(§7) Table S1. In vitro binding assays. An ExpresSProfile screen of PTX-BD4-3 binding to a panel of pharmacologically relevant receptors was conducted by Cerep, Inc.
(§8) (Eurofins Panlabs, MO). The results are expressed as percent inhibition of control specific binding obtained in the presence of 10 micromolar PTX-BD4-3. In this assay, values below 50% indicate no specific binding of PTX-BD4-3. The assay was negative for PTX-BD4-3 binding to all of the 55 receptors in the screen.
(§9) (also on this page, place not known: 2B 5‐HT 3 5‐HT 5a 5‐HT 6 5‐HT 7 (agonis t VPAC 1 V 1 Ca 2+ K V SK Ca Na + Cl ‐ 5‐HT Disease Models & Mechanisms: doi:10.1242/dmm.044685: Supplementary information Disease Models & Mechanisms • Supplementary information)

[2] = molecular target: T2, μ (MOP) (h) (Homo sapiens, UniProt P35372); experiment: Cerep ExpresSProfile radioligand binding; settings: 10 micromolar; agonist radioligand; read-out: % Inhibition of Control Specific Binding 1st
T2 construct: purchased Cerep (ExpresSProfile)
Procedure: as §1, §2, §3, §4, §5, §6, §7, §8, §9

[3] = tested on: GABA (non-selective); experiment: Cerep ExpresSProfile radioligand binding; settings: 10 micromolar; agonist radioligand
Procedure: as §1, §2, §3, §4, §5, §6, §7, §8, §9

[4] = molecular target: T3, D1 (h) (Homo sapiens, UniProt P21728); experiment: Cerep ExpresSProfile radioligand binding; settings: 10 micromolar, antagonist radioligand
T3 construct: purchased Cerep (ExpresSProfile)
Procedure: as §1, §2, §3, §4, §5, §6, §7, §8, §9

[5] = molecular target: T4, 5-HT2A (h) (Homo sapiens, UniProt P28223); experiment: Cerep ExpresSProfile radioligand binding; settings: 10 micromolar, antagonist radioligand
T4 construct: purchased Cerep (ExpresSProfile)
Procedure: as §1, §2, §3, §4, §5, §6, §7, §8, §9

[6] = molecular target: T5, A1 (h) (Homo sapiens, UniProt P30542); experiment: Cerep ExpresSProfile radioligand binding; settings: 10 micromolar, agonist radioligand
T5 construct: purchased Cerep (ExpresSProfile)
T5 sequence (P30542 1-326): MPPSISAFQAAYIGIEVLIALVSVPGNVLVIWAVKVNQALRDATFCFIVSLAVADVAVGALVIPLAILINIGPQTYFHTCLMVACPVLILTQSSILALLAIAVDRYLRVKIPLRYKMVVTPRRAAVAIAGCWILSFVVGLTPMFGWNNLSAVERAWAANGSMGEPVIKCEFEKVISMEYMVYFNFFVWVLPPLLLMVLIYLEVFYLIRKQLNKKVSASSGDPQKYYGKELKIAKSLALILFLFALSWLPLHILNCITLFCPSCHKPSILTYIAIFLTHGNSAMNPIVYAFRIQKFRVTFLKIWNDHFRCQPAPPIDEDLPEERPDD
Procedure: as §1, §2, §3, §4, §5, §6, §7, §8, §9

[7] = molecular target: T6, H1 (h) (Homo sapiens, UniProt P35367); experiment: Cerep ExpresSProfile radioligand binding; settings: 10 micromolar, antagonist radioligand
T6 construct: purchased Cerep (ExpresSProfile)
Procedure: as §1, §2, §3, §4, §5, §6, §7, §8, §9

[8] = molecular target: T7, EP4 (h) (Homo sapiens, UniProt P35408); experiment: Cerep ExpresSProfile radioligand binding; settings: 10 micromolar, agonist radioligand
T7 construct: purchased Cerep (ExpresSProfile)
Procedure: as §1, §2, §3, §4, §5, §6, §7, §8, §9

[9] = tested on: heterozygous (Het) female Mecp2 mutant mice; experiment: Rotarod; assay type: in vivo, mouse; settings: 5 mg/kg q72 h
Procedure: Small-molecule compounds were diluted in saline and delivered by i.p. injection. To define the acute effects of single drug treatments, behavioral testing was initiated 1 h after dosing. Durable effects of single drug treatments were evaluated 24 h after dosing. […]
A Rotarod apparatus (Columbus Instruments) was used test to assess sensorimotor coordination. Animals were placed on a rotating rod at a constant speed of 4 rpm for 1 min of acclimation. […] Latency of the animal to fall was recorded. The test was repeated three times, with each trial separated by 15 min, to assess potential learning components of any observed phenotypes.

[10] = tested on: heterozygous (Het) female Mecp2 mutant mice; experiment: Whole-body plethysmography (apnea index); assay type: in vivo, mouse
Procedure: Small-molecule compounds were diluted in saline and delivered by i.p. injection. To define the acute effects of single drug treatments, behavioral testing was initiated 1 h after dosing. Durable effects of single drug treatments were evaluated 24 h after dosing. To define the effects of repeated dosing, mice were treated once every 3 days (q72 h) for 4 or 8 weeks, and behavioral testing was performed 24 h after the last dose.
Breathing was recorded in unrestrained Wt and Het mice using a whole-body plethysmograph (EMMS Systems), in which a constant bias flow supply connected to the animal recording chamber ensured continuous inflow of fresh air (1 l/min) and ambient temperature was maintained between 23°C and 25°C. Animals were allowed to acclimate in the recording chambers for 30 min, and respiratory data were collected for the next 3 h. Because respiration is strongly influenced by behavioral state, data were only analyzed from periods of quiet breathing, which was defined as periods when the animal was not moving and had all four paws on the chamber floor. In most experiments, aggregated episodes of quiet breathing totaling at least 10 min were used for analysis. […] Apneas were defined as breathing pauses longer than 2× the average total breath duration (Ttot) measured during quiet breathing and are reported here as apneas/min (apnea index).

[11] = read-out: % Inhibition of Control Specific Binding 1st
[12] = read-out: % Inhibition of Control Specific Binding 2nd
[13] = read-out: % Inhibition of Control Specific Binding Mean

T7 sequence (P35408 whole entry): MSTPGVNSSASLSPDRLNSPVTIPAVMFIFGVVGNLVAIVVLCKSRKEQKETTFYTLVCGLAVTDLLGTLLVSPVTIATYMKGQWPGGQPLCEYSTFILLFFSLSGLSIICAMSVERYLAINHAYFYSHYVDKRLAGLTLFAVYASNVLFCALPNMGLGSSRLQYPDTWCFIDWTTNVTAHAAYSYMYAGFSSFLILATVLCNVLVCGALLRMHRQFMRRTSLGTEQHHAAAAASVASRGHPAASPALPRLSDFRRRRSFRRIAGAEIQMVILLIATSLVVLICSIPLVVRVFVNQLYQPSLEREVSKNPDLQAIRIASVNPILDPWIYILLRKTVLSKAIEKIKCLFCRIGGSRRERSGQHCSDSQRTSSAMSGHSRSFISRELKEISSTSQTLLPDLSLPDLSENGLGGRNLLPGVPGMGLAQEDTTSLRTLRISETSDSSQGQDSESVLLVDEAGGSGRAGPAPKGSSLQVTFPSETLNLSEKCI
T6 sequence (P35367 whole entry): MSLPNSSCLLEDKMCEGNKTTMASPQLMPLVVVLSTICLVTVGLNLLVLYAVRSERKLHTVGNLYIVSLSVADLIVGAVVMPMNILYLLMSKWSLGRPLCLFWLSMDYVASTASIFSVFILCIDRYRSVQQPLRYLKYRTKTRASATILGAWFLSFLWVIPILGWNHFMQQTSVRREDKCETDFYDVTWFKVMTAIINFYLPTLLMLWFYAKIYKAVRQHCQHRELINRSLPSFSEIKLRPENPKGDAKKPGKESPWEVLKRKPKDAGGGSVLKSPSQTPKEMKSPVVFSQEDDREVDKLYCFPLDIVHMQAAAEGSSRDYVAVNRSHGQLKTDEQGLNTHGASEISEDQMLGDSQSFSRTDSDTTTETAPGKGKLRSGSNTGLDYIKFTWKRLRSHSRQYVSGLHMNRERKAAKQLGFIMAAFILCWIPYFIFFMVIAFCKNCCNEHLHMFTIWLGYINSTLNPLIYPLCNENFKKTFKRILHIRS
T3 sequence (P21728 whole entry): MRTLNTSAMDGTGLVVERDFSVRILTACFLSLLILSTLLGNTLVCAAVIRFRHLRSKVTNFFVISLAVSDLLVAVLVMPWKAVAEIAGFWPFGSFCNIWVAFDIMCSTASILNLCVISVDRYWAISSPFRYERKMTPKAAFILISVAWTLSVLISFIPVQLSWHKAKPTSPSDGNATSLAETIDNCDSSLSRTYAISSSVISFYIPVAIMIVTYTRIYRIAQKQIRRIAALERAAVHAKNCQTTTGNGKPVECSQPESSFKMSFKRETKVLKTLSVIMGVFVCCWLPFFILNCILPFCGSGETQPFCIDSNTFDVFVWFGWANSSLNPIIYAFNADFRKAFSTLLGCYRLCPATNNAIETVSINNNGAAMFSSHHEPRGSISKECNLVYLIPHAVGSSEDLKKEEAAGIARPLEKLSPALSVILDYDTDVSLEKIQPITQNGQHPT
T4 sequence (P28223 whole entry): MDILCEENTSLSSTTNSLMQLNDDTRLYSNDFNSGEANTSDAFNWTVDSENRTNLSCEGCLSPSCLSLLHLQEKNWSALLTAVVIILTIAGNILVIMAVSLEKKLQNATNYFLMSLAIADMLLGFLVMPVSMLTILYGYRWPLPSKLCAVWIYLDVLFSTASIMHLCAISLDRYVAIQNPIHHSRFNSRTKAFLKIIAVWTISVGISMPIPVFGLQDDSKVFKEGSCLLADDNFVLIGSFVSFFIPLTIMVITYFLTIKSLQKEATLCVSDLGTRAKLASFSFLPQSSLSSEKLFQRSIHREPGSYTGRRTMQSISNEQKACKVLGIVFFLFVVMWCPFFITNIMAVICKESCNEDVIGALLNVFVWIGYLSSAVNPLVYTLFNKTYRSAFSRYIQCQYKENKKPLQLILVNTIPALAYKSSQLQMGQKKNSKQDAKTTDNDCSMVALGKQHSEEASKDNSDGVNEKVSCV
T1 sequence (O43603 whole entry): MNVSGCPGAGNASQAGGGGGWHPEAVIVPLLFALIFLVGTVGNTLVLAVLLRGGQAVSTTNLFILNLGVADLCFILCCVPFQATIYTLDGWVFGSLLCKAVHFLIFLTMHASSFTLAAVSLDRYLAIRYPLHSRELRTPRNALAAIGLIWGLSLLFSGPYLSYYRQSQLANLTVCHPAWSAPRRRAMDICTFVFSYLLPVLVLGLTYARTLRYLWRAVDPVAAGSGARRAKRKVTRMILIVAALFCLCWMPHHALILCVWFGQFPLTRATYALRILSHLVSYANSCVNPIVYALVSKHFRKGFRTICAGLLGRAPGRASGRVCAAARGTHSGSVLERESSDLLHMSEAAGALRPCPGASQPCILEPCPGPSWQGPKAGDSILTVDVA
T2 sequence (P35372 whole entry): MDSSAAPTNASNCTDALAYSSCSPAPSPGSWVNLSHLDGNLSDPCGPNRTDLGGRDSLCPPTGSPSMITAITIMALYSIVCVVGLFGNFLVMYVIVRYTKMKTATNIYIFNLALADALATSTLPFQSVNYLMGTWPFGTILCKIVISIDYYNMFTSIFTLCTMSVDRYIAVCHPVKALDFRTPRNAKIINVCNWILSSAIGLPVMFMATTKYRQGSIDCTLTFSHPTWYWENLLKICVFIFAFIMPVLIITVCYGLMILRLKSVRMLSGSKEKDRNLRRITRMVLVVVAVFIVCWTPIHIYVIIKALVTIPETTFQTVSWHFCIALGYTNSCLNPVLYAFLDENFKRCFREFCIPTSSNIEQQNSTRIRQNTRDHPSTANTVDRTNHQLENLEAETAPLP

COCCN(C)C(=O)c1cc(C(=O)N(C)CCOC)cc(C(=O)N(C)CCOC)c1 [PTX-BD4-3, benzene-1,3,5-tricarboxylic acid tris-[(2-methoxy-ethyl)-methyl-amide]]
inhibition at 10 µM [1]: 6.3%
inhibition at 10 µM [2]: 6.6%
% Inhibition of Control Specific Binding 1st [3]: 16.5%
% Inhibition of Control Specific Binding 2nd [3]: 19.1%
% Inhibition of Control Specific Binding Mean [3]: 17.8%
inhibition at 10 µM [4, 11]: 10.7%
inhibition at 10 µM [4, 12]: 1.3%
inhibition at 10 µM [4, 13]: 6%
inhibition at 10 µM [5, 11]: 4.8%
inhibition at 10 µM [5, 13]: 0%
inhibition at 10 µM [6, 11]: 8.9%
inhibition at 10 µM [6, 12]: 5.6%
inhibition at 10 µM [6, 13]: 7.2%
inhibition at 10 µM [7, 11]: 5.8%
inhibition at 10 µM [7, 12]: 5.2%
inhibition at 10 µM [7, 13]: 5.5%
inhibition at 10 µM [8, 11]: 9.5%
inhibition at 10 µM [8, 12]: 10.4%
inhibition at 10 µM [8, 13]: 9.9%
Rotarod performance (latency to fall) ([9]; 2 weeks, repeated testing, 24 h after last dose): as impaired as their saline-treated Het littermates
Rotarod performance (latency to fall) ([9]; 8 weeks, repeated testing at 2, 4, 8 weeks, 24 h after last dose): comparable to that of saline-treated Wt controls
Rotarod performance (latency to fall) ([9]; 8 weeks, tested only at the end of treatment, vs saline-treated Het): no improvement
apnea index ([10]; Het mice, 5 mg/kg i.p. q72 h for 4 weeks, 24 h after last dose, vs saline-treated Het): significantly reduced
apnea index ([10]; Het mice, 5 mg/kg i.p. q72 h for 8 weeks, 24 h after last dose, vs saline-treated Het): significantly reduced
apnea index ([10]; single dose 5 mg/kg i.p., drug-naïve mice at 24 weeks of age, 24 h after dosing): no change
